Test results from patent publication US5739158A, “Nitrogen-containing cyclohetero cycloalkylaminoaryl derivatives for CNS disorders” (The United States of America as represented by the …, priority 1992, dated 1998).

Assays:
sigma receptors = target: T1, sigma receptors (Cavia porcellus, UniProt Q60492); assay: Radioreceptor assay in guinea pig brain homogenate (P2 membranes), [3H]-(+)-3-PPP; assay type: binding
T1 construct: crude synaptosomal (P2) membrane fraction of guinea pig brain for sigma receptors; tissue Pel-Freeze, Rogers, Ak; host or cells: guinea pig brain minus cerebellum, crude synaptosomal (P2) membranes

sigma receptor = target: T2, sigma receptor (Rattus norvegicus, UniProt Q9R0C9); assay: Radioreceptor assay in rat brain homogenate, displacement of [3H]-(+)-3-PPP; assay type: binding; conditions: rat brain membranes; 2 nM [3H]-(+)-3-PPP; 1 hr, room temperature; units ± SEM; read-out: Ki apparent
T2 construct: Brains from male Sprague-Dawley rats were homogenized; from tissue; host or cells: rat brain crude membranes (male Sprague-Dawley)
Procedure: Acad. Sci., 83, 8784-8788, 1986] to determine the relative potency of the compounds interacting with the sigma receptor. To determine the effects of the compounds in a sigma receptor assay, crude membrane preparations were prepared as follows. Brains from male Sprague-Dawley rats were homogenized in 10 volumes (wt/vol) of 0.32M sucrose, using a Polytron grinder. The homogenate was centrifuged at 900×G for 10 minutes at 4° C. The supernatant was collected and centrifuged at 22,000×g for 20 minutes at 4° C. The pellet was resuspended in 10 volumes of 50 mM Tris/HCl buffer (pH 7.4) and centrifuged at 22,000×g for 20 minutes at 4° C. The pellet was resuspended in 5 mM Tris/HCl buffer (pH 7.4) to give a final concentration of 250 mg/ml of the crude material. Incubation tubes were prepared in triplicate and contained 0.1 ml of tissue suspension, 2 nM of [^3 H]-(+)-1-propyl-3-(3-hydroxyphenyl)piperidine {[^3 H]-3-(+)-PPP}, and varying concentrations of the displacing ligand (0.1-1000 nM) in a final volume of 0.5 ml. After a 1 hr incubation at room temperature, the contents of the test tubes were filtered through GS filter paper which had been presoaked for at least 2 hours in 0.05% polyethyleneamine. The test tubes were rinsed three times with Tris/HCl buffer. Radioactivity on the filters was determined and […] were calculated from inhibition curves using the method of Cheng and Prusoff [Biochem. Pharmacol., 22, 3099-3108, 1973].

[1] = system: CA1 region of the hippocampus; assay: Forebrain ischemia assay (bilateral carotid occlusion); assay type: in vivo, Mongolian gerbil; conditions: 50 mg/kg i.p. 30 minutes prior to carotid occlusion (15 min); 7 days; p<0.01
Procedure: Male Mongolian gerbils, 50-70 gm, were used as subjects. Compound No. 8 (50 mg/kg) was injected i.p. 30 minutes prior to carotid occlusion into 6 gerbils. In preparation for surgical procedures, the animals were lightly anesthetized with halothane and placed upside down on a heated pad with their snout within a nosecone. Nitrous oxide (70%): oxygen (30%) plus 0.5% halothane was circulated through the nosecone to provide continuous anesthesia throughout the surgical procedure. A midline incision was made in the neck and the carotid arteries were exposed. A length of suture thread was placed under each carotid. The thread was then tightened around each carotid and pressure applied to the thread to insure flow as occluded. Flow was occluded for 15 minutes and then the thread was removed. The carotids were visually inspected to confirm that reflow had occurred. The wound was then closed with autoclips and the gerbils allowed to recover. Following surgery, the gerbils were kept alive for 7 days. […] The degree of lesion in the CA1 region of the hippocampus was quantified by counting the pyramidal cell bodies in a 0.5 mm length of CA1 on the section corresponding to P 1.7 mm in the atlas of Loskota, Lnax and Verity [W. J. Loskota et al, A Stereotaxic Atlas of the Mongolian Gerbil Brain, Ann Arbor Science Publishers, Ann Arber, p. […]

[2] = system: apomorphine-induced climbing; assay: Blockage of apomorphine-induced climbing; assay type: in vivo, mouse (Swiss-Webster); conditions: 10 mg/kg; apomorphine 2 mg/kg s.c.; i.p. or s.c. pretreatment
Procedure: Compounds of the invention were evaluated for their ability to block apomorphine-induced climbing. The evaluation of the compounds followed the method outlined by Protais [Psychopharmcol., 50, 1-6, 1976]. Swiss-Webstermice, weighing 20-25 g, are pretreated with the compounds of the invention by i.p. or s.c. administration at various times before 2 mg/kg apomorphine is administered s.c. in a volume of 1 ml/kg. All test compounds are administered in a volume of 10 ml/kg. Mice are rated at 10 and 20 minutes after apomorphine administration using the following rating scale: (0) forepaws on the floor, (1) forefeet holding the bars, and (2) four paws holding bars. Dose-response curves are analyzed by a computerized Finney assay [Statistical Methods in Biological Assays, 2nd Edn., Hatner Pub. Co., New York (1964)].

T1 sequence (Q60492 whole entry): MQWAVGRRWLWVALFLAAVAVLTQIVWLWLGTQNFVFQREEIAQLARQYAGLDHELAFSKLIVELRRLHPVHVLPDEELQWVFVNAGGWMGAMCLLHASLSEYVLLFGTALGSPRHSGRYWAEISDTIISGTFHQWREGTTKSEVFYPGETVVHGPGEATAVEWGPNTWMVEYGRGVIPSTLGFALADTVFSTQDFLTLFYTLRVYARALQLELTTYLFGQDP
T2 sequence (Q9R0C9 whole entry): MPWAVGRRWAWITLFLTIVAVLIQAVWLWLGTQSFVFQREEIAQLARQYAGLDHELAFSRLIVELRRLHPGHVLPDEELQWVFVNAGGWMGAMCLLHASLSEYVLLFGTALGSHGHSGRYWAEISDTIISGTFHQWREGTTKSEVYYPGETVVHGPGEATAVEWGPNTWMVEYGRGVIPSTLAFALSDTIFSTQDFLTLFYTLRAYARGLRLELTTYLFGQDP

CN(CCc1ccc(Cl)c(Cl)c1)[C@@H]1CCCC[C@@H]1N1CCCC1 [Compound No. 8, 1R,2S-(+)-cis-N-[2-(3,4-dichlorophenyl)ethyl]-N-methyl-2-(1-pyrrolidinyl)cyclohexylamine] was tested, and the Ki (sigma receptors) was 6 ± 3 nM, the Ki (sigma receptor) was 20 ± 1 nM and the “Cell loss in CA1 region of hippocampus” value [1] was “significantly reduced”. The “Blockage of apomorphine-induced climbing” value [2] was “completely blocked”.
